Measured values reported in EP4603105A1, “PHARMACEUTICAL COMPOSITION CONTAINING CYCLIC COMPOUND HAVING SELECTIVE KRAS INHIBITORY EFFECT AGAINST HRAS AND NRAS” (CHUGAI SEIYAKU KABUSHIKI KAISHA, priority 2022, dated 2024).

Columns and labels:
[1] = molecular target: GDP-bound NRAS wild-type protein (Homo sapiens, UniProt P01111); assay: Binding to NRAS by surface plasmon resonance (SPR), KD and KD ratio to KRAS
How it was run: (§1)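 Each cycle, GDP-bound biotin-Avi RAS was captured (~100–300 RU), compound concentrations were injected low to high for 75 s each at 100 µL/min, then the chip was regenerated. Buffer: HBS pH 7.4, 10 mM MgCl2, 10 µM GDP, 1 mM DTT, 4% DMSO; 30°C. KD from a 1:1 binding model.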

HRAS wild-type protein = HRAS wild-type protein (Homo sapiens, UniProt P01112); assay: Binding to HRAS by surface plasmon resonance (SPR), KD and KD ratio to KRAS
Sequence of HRAS wild-type protein (P01112 whole entry): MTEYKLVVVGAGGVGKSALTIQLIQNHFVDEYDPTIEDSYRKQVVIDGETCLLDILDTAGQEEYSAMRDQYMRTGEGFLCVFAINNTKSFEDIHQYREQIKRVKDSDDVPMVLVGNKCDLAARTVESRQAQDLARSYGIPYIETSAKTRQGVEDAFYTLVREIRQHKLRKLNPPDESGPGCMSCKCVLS
How it was run: as §1

[2] = system: human lung cancer strain NCI-H441; format: cell-based
How it was run: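 Signal came from […] measured per well once the reagent was added. Beforehand, cells were cultured at 37°C and 5% carbon dioxide on a compound series serially diluted in dimethyl sulfoxide.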

[3] = ratio of KD with respect to GDP-bound NRAS wild-type protein to KD with respect to KRAS
[4] = ratio of KD with respect to HRAS wild-type protein to KD with respect to KRAS
[5] = ratio of KD value for GDP-bound NRAS wild-type protein to KD value for KRAS (SPR)
[6] = ratio of KD value for HRAS wild-type protein to KD value for KRAS (SPR)

Sequence of GDP-bound NRAS wild-type protein (P01111 whole entry): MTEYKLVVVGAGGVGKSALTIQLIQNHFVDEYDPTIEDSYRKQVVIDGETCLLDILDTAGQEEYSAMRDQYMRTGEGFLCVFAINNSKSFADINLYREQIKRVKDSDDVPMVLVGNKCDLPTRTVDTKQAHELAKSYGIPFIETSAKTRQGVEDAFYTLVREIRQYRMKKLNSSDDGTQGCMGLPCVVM

Compound	NRAS /KRAS [1, 3]	HRAS /KRAS (HRAS wild-type protein; [4])	IC50 [2]	NRAS /KRAS [1, 5]	HRAS /KRAS (HRAS wild-type protein; [6])
CCO[C@@H]1C[C@H]2C(=O)NC3(CCC3)C(=O)N(C)[C@@H](C3CCCC3)C(=O)N(C)[C@H](C(=O)N(C)CCOC)CC(=O)N(C)[C@@H](CC(C)C)C(=O)N[C@@H]([C@@H](C)CC)C(=O)N(C)CC(=O)N(C)[C@H]3C/C=C\CCN(C3=O)[C@@H](Cc3ccc(C(F)(F)F)cc3)C(=O)N(C)CC(=O)N[C@@H](CCc3ccc4sccc4c3)C(=O)N2C1 [PP1325]	A (a compound having 10 or more and less than 20 is denoted as A)	A (a compound having 10 or more and less than 20 is denoted as A)	42.7 nM	–	–
CCO[C@@H]1C[C@H]2C(=O)NC3(CCC3)C(=O)N(C)[C@@H](C3CCCC3)C(=O)N(C)[C@H](C(=O)N(C)CCOC)CC(=O)N(C)[C@@H](CC(C)C)C(=O)N[C@@H]([C@@H](C)CC)C(=O)N(C)CC(=O)N(C)[C@H]3C/C=C\CCN(C3=O)[C@@H](Cc3ccc(C(F)(F)F)cc3)C(=O)N(C)CC(=O)N[C@@H](CCc3ccc(Cl)c(Cl)c3)C(=O)N2C1 [PP1326]	AA (a compound having 20 or more is denoted as AA)	A (a compound having 10 or more and less than 20 is denoted as A)	23.1 nM	–	–
CCO[C@@H]1C[C@H]2C(=O)NC3(CCC3)C(=O)N(C)[C@@H](C3CCCC3)C(=O)N(C)[C@H](C(=O)N(C)CCOC)CC(=O)N(C)[C@@H](CC3CC3)C(=O)N[C@@H]([C@@H](C)CC)C(=O)N(C)CC(=O)N(C)[C@H]3C/C=C\CCN(C3=O)[C@@H](Cc3ccc(C(F)(F)F)cc3)C(=O)N(C)CC(=O)N[C@@H](CCc3ccc(C(F)(F)F)c(OC)c3)C(=O)N2C1 [PP1327]	A (a compound having 10 or more and less than 20 is denoted as A)	A (a compound having 10 or more and less than 20 is denoted as A)	12.4 nM	–	–
CCO[C@@H]1C[C@H]2C(=O)NC3(CCC3)C(=O)N(C)[C@@H](C3CCCC3)C(=O)N(C)[C@H](C(=O)N(C)CCOC)CC(=O)N(C)[C@@H](CC3CC3)C(=O)N[C@@H]([C@@H](C)CC)C(=O)N(C)CC(=O)N(C)[C@H]3C/C=C\CCN(C3=O)[C@@H](Cc3ccc(C(F)(F)F)cc3)C(=O)N(C)CC(=O)N[C@@H](CCc3ccc4sccc4c3)C(=O)N2C1 [PP1328]	A (a compound having 10 or more and less than 20 is denoted as A)	A (a compound having 10 or more and less than 20 is denoted as A)	134 nM	–	–
CCO[C@@H]1C[C@H]2C(=O)NC3(CCC3)C(=O)N(C)[C@@H](C(CC)CC)C(=O)N(C)[C@H](C(=O)N(C)CCOC)CC(=O)N(C)[C@@H](CC)C(=O)N[C@@H]([C@@H](C)CC)C(=O)N(C)CC(=O)N(C)[C@H]3C/C=C\CCN(C3=O)[C@@H](Cc3ccc(C(F)(F)F)cc3)C(=O)N(C)CC(=O)N[C@@H](CCc3cc(F)c(C(F)(F)F)c(F)c3)C(=O)N2C1 [PP1330]	AA (a compound having 20 or more is denoted as AA)	A (a compound having 10 or more and less than 20 is denoted as A)	79.6 nM	–	–
CCC[C@H]1C(=O)N[C@@H]([C@@H](C)CC)C(=O)N(C)CC(=O)N(C)[C@H]2C/C=C\CCN(C2=O)[C@@H](Cc2ccc(C(F)(F)F)cc2)C(=O)N(C)CC(=O)N[C@@H](CCc2cc(F)c(C(F)(F)F)c(F)c2)C(=O)N2C[C@H](OCC)C[C@H]2C(=O)NC2(CCC2)C(=O)N(C)[C@@H](C2CCCC2)C(=O)N(C)[C@H](C(=O)N(C)CCOC)CC(=O)N1C [PP1331]	A (a compound having 10 or more and less than 20 is denoted as A)	A (a compound having 10 or more and less than 20 is denoted as A)	13.9 nM	–	–
CCO[C@@H]1C[C@H]2C(=O)NC3(CCC3)C(=O)N(C)[C@@H](C3CCCC3)C(=O)N(C)[C@H](C(=O)N3CCOCC3)CC(=O)N(C)[C@@H](CC(C)C)C(=O)N[C@@H]([C@@H](C)CC)C(=O)N(C)CC(=O)N(C)[C@H]3CC/C=C(/C)CN(C3=O)[C@@H](Cc3ccc(C(F)(F)F)cc3)C(=O)N(C)CC(=O)N[C@@H](CCc3cc(F)c(C(F)(F)F)c(F)c3)C(=O)N2C1 [PP1333]	C (A compound having a KD ratio of 0.1 or more and less than 3 is denoted as C)	B (a compound having 3 or more and less than 10 is denoted as B)	980 nM	–	–
CCO[C@@H]1C[C@H]2C(=O)NC3(CCC3)C(=O)N(C)[C@@H](C3CCCC3)C(=O)N(C)[C@H](C(=O)N(C)C)CC(=O)N(C)[C@@H](CC)C(=O)N[C@@H]([C@@H](C)CC)C(=O)N(C)CC(=O)N(C)[C@H]3CC/C=C(/C)CN(C3=O)[C@@H](Cc3ccc(C(F)(F)F)cc3)C(=O)N(C)CC(=O)N[C@@H](CCc3cc(F)c(C(F)(F)F)c(F)c3)C(=O)N2C1 [PP1334]	B (a compound having 3 or more and less than 10 is denoted as B)	B (a compound having 3 or more and less than 10 is denoted as B)	968 nM	–	–
CCO[C@@H]1C[C@H]2C(=O)NC3(CCC3)C(=O)N(C)[C@@H](C3CCCC3)C(=O)N(C)[C@H](C(=O)N3CCOCC3)CC(=O)N(C)[C@@H](CC)C(=O)N[C@@H]([C@@H](C)CC)C(=O)N(C)CC(=O)N(C)[C@H]3CC/C=C(/C)CN(C3=O)[C@@H](Cc3ccc(C(F)(F)F)cc3)C(=O)N(C)CC(=O)N[C@@H](CCc3cc(F)c(C(F)(F)F)c(F)c3)C(=O)N2C1 [PP1335]	B (a compound having 3 or more and less than 10 is denoted as B)	B (a compound having 3 or more and less than 10 is denoted as B)	736 nM	–	–
CCCN(C)C(=O)[C@@H]1CC(=O)N(C)[C@@H](CC(C)C)C(=O)N[C@@H]([C@@H](C)CC)C(=O)N(C)CC(=O)N(C)[C@H]2C/C=C\CCN(C2=O)[C@@H](Cc2ccc(C(F)(F)F)cc2)C(=O)N(C)CC(=O)N[C@@H](CCc2cc(F)c(C(F)(F)F)c(F)c2)C(=O)N2C[C@H](OCC)C[C@H]2C(=O)NC2(CCC2)C(=O)N(C)[C@@H](C2CCCC2)C(=O)N1C [PP1387]	A (a compound having 10 or more and less than 20 is denoted as A)	B (a compound having 3 or more and less than 10 is denoted as B)	15.3 nM	–	–
CCCN(C)C(=O)[C@@H]1CC(=O)N(C)[C@@H](CC2CC2)C(=O)N[C@@H]([C@@H](C)CC)C(=O)N(C)CC(=O)N(C)[C@H]2C/C=C\CCN(C2=O)[C@@H](Cc2ccc(C(F)(F)F)cc2)C(=O)N(C)CC(=O)N[C@@H](CCc2cc(F)c(C(F)(F)F)c(F)c2)C(=O)N2C[C@H](OCC)C[C@H]2C(=O)NC2(CCC2)C(=O)N(C)[C@@H](C2CCCC2)C(=O)N1C [PP1388]	A (a compound having 10 or more and less than 20 is denoted as A)	B (a compound having 3 or more and less than 10 is denoted as B)	8.8 nM	–	–
CCC[C@H]1C(=O)N[C@@H]([C@@H](C)CC)C(=O)N(C)CC(=O)N(C)[C@H]2C/C=C\CCN(C2=O)[C@@H](Cc2ccc(C(F)(F)F)cc2)C(=O)N(C)CC(=O)N[C@@H](CCc2cc(F)c(C(F)(F)F)c(F)c2)C(=O)N2C[C@H](OCC)C[C@H]2C(=O)NC2(CCC2)C(=O)N(C)[C@@H](C2CCCC2)C(=O)N(C)[C@H](C(=O)N(C)CCC)CC(=O)N1C [PP1389]	AA (a compound having 20 or more is denoted as AA)	A (a compound having 10 or more and less than 20 is denoted as A)	2.4 nM	–	–
CCO[C@@H]1C[C@H]2C(=O)NC3(CCC3)C(=O)N(C)[C@@H](C3CCCC3)C(=O)N(C)[C@H](C(=O)N(C)C)CC(=O)N(C)[C@@H](CC3CCCC3)C(=O)N[C@@H]([C@@H](C)CC)C(=O)N(C)CC(=O)N(C)[C@H]3C/C=C\CCN(C3=O)[C@@H](Cc3ccc(C)cc3)C(=O)N(C)CC(=O)N[C@@H](CCc3ccc(Cl)c(Cl)c3)C(=O)N2C1 [PP1487]	–	–	46.6 nM	A (a compound having 10 or more and less than 20 is denoted as A)	A (a compound having 10 or more and less than 20 is denoted as A)
CCO[C@@H]1C[C@H]2C(=O)NC3(CCC3)C(=O)N(C)[C@@H](C3CCCC3)C(=O)N(C)[C@H](C(=O)N(C)C)CC(=O)N(C)[C@@H](CC(C)C)C(=O)N[C@@H]([C@@H](C)CC)C(=O)N(C)CC(=O)N(C)[C@H]3C/C=C\CCN(C3=O)[C@@H](Cc3ccc(F)cc3)C(=O)N(C)CC(=O)N[C@@H](CCc3cc(F)c(C(F)(F)F)c(F)c3)C(=O)N2C1 [PP1488]	–	–	23.2 nM	A (a compound having 10 or more and less than 20 is denoted as A)	B (a compound having 3 or more and less than 10 is denoted as B)
CCO[C@@H]1C[C@H]2C(=O)NC3(CCC3)C(=O)N(C)[C@@H](C3CCCC3)C(=O)N(C)[C@H](C)CC(=O)N(C)[C@@H](CC3CC3)C(=O)N[C@@H]([C@@H](C)CC)C(=O)N(C)CC(=O)N(C)[C@H]3C/C=C\CCN(C3=O)[C@@H](Cc3ccc(F)cc3)C(=O)N(C)CC(=O)N[C@@H](CCc3cc(F)c(C(F)(F)F)c(F)c3)C(=O)N2C1 [PP1490]	–	–	48.9 nM	B (a compound having 3 or more and less than 10 is denoted as B)	B (a compound having 3 or more and less than 10 is denoted as B)
